ChEMBL document CHEMBL1255359, “Mechanisms of macrolide resistance among Streptococcus pneumoniae isolates from Russia” (2008)
≈ marks a conversion by molar mass, not a printed value.

Tests used:
Assay type in all cases: functional
Streptococcus pneumoniae [1] = test: Antibacterial activity against inducible macrolide-lincosamide-streptogramin B resistant and erm(B)-positive Streptococcus pneumoniae by broth dilution method
Streptococcus pneumoniae [2] = test: Antibacterial activity against inducible macrolide-lincosamide-streptogramin B resistant erm(B) and mef(E)-positive Streptococcus pneumoniae by broth dilution method
Streptococcus pneumoniae [3] = test: Antibacterial activity against constitutive macrolide-lincosamide-streptogramin B resistant erm(B) and mef(E)-positive Streptococcus pneumoniae by broth dilution method
Streptococcus pneumoniae [4] = test: Antibacterial activity against constitutive macrolide-lincosamide-streptogramin B resistant and erm(B)-positive Streptococcus pneumoniae by broth dilution method
Streptococcus pneumoniae [5] = test: Antibacterial activity against macrolide resistant and mef-positive Streptococcus pneumoniae by broth dilution method
Streptococcus pneumoniae [6] = test: Antibacterial activity against macrolide resistant and mef(E)-positive Streptococcus pneumoniae by broth dilution method
Streptococcus pneumoniae [7] = test: Antibacterial activity against macrolide resistant and mef(I)-positive Streptococcus pneumoniae by broth dilution method

| SMILES | MIC (Streptococcus pneumoniae [1]) [µg/mL] | MIC (Streptococcus pneumoniae [2]) [µg/mL] | MIC (Streptococcus pneumoniae [3]) [µg/mL] | MIC (Streptococcus pneumoniae [4]) [µg/mL] | MIC (Streptococcus pneumoniae [5]) [µg/mL] | MIC (Streptococcus pneumoniae [6]) [µg/mL] | MIC (Streptococcus pneumoniae [7]) [µg/mL] |
| --- | --- | --- | --- | --- | --- | --- | --- |
| CCC[C@@H]1C[C@@H](C(=O)N[C@@H]([C@H]2O[C@H](SC)[C@H](O)[C@@H](O)[C@H]2O)[C@H](C)Cl)N(C)C1 [CLINDAMYCIN] | ≥ 2 | ≥ 32 | ≥ 8 | ≥ 32 | 0.03 (≈ 0.0706 µM) | 0.015 (≈ 0.0353 µM) | 0.015 (≈ 0.0353 µM) |
| CC[C@H]1OC(=O)[C@H](C)[C@@H](O[C@H]2C[C@@](C)(OC)[C@@H](O)[C@H](C)O2)[C@H](C)[C@@H](O[C@@H]2O[C@H](C)C[C@H](N(C)C)[C@H]2O)[C@](C)(O)C[C@@H](C)C(=O)[C@H](C)[C@@H](O)[C@]1(C)O [ERYTHROMYCIN] | ≥ 2 | ≥ 32 | ≥ 32 | ≥ 32 | 8 (≈ 10.9 µM) | 1 (≈ 1.36 µM) | 2 (≈ 2.73 µM) |
